Source: patent publication US20020106705A1, “Detection method for monitoring beta tubulin isotype specific modification” (Tularik Inc., priority 1999, published 2002)

Legend:
[1] = test system: β-tubulin in white blood cells; test: Western blot of white blood cells from a human patient after compound 1 infusion; format: in vivo
Protocol: (§1) White blood cells (“WBC”) were isolated from blood samples (5 ml) taken immediately after a 3 h infusion of compound 1 sodium salt from rats or a human patient treated at 20 mg/kg and 220 mg/m2, respectively, as follows. The samples were mixed with 5 ml of PBS and layered on a Ficoll cushion (10 ml, “Lymphoprep” (density is ˜1.077 and osmolality 280 mOsm, Gibco/BRL). After centrifugation (1000 rpm, 30 min (Sorvall RC3C centrifuge)) at room temperature WBC were isolated from the cushion and the sample was diluted 1:5 with PBS. After centrifugation (2000 rpm for 10 min) the liquid was discarded and the cell pellet was resuspended in 1 ml of PBS. The solution was transferred to an Eppendorf tube and the cells were collected by centrifugation (3000 rpm, 5 min). After the supernatant was discarded the cell pellet was stored at −80° C. or processed as follows. Rat WBC-pellet was resuspended in 15 μl of IEF-buffer and mixed with 15 μl of 2× SDS sample buffer. The human sample was mixed immediately with an equal volume (10 μl) of SDS sample buffer. Protein samples ([…], human; 2 μl, rat) were analyzed by SDS-PAGE and subjected to western blot analyzes as outlined above.
As a standard 10 μg of purified brain tubulin was mixed with […] of BRB80 buffer and incubated with 10 μl of ^3H-compound 1 (10 μCi) in a 500 μl reaction at […] for 2 h. […]

[2] = test system: β-tubulin in white blood cells; test: Western blot of white blood cells from rats after compound 1 infusion; format: in vivo, rat; conditions: 3 h infusion of compound 1 sodium salt, 20 mg/kg
Protocol: as §1

β-tubulin isotypes = conditions: cited from earlier work
cellular tubulin = conditions: cited from earlier work

Question: For `COc1ccc(NS(=O)(=O)c2c(F)c(F)c(F)c(F)c2F)cc1F` [compound 1, 2-fluoro-1-methoxy-4-pentafluorophenylsulfonamidobenzene], which “amount of loaded tubulin modified by compound 1” value ([1]; human WBC sample, compared with 3H-compound 1-β-tubulin standard curve) is on record?
Answer: ~7.5 fmol

Question: What about the “β-tubulin modification in white blood cells (western blot with 2C1H7)” value ([1]; human patient, 3 h infusion of compound 1 sodium salt, 220 mg/m2) of the same compound?
Answer: a protein consistent of the size of β-tubulin was visible

Question: And the “β-tubulin modification in white blood cells (western blot with 2C1H7)” value [2]?
Answer: a protein consistent of the size of β-tubulin was visible

Question: And the “modification of other cellular proteins” value (β-tubulin isotypes)?
Answer: no other cellular proteins are modified

Question: What about the “covalent modification of β-tubulin isotypes” value (β-tubulin isotypes; five known β-tubulin isotypes, β1, β2, β4 have Cys239, β3 and β5 have serine) of the same compound?
Answer: binding is restricted to those β-tubulin isotypes that have a cysteine residue at amino acid position 239 in β-tubulin

Question: And the “binding to cellular tubulin” value (cellular tubulin)?
Answer: time- and concentration-dependent
